How the values were obtained:
[1] = Serum 25-(OH)D3 (RIA) after 1×/month oral administration in rats with normal vitamin D status; assay type: in vivo, rat
Source text: FIG. 1 is a bar graph showing exemplary elevations of serum 25-(OH)D3 levels occurring after 1×/month oral administration of 25-(OH)D3 at 9 and 100 mcg/kgBW in rats with normal vitamin D status. The rats were male, Sprague-Dawley rats (9 weeks of age, n=15) received from a commercial supplier, and the animals were placed on a purified diet containing 0.47% calcium and allowed to acclimate for one week. After one week the animals were randomly assigned to 3 groups, bled (0 d), and then orally dosed 1× every 28 days with vehicle (5% ethanol in Neobee oil) or 25-(OH)D3 dissolved in ethanol and Neobee oil. Blood was again collected 4 hr, 24 hr, and 1, 2, 3 and 4 weeks after each single, oral dose was administered, and, serum 25-(OH)D3 concentrations were assessed using a commercially available RIA kit (DiaSorin of Stillwater, Minn.). FIG. 1 also contains data taken after 6 months of dosing.
FIG. 5 is a bar graph illustrating the increases in serum 25(OH)D3 occurring after 1×/monthly oral administration of 25(OH)D3 at 1000 and 3000 mcg/kg body weight in rats with normal vitamin D status. The rats were male, Sprague-Dawley rats (9 weeks of age, n=4-6 animals/group) received from a commercial supplier. […] Blood was collected at the times indicated in the graph, and serum 25(OH)D3 concentrations were assessed using a commercially available RIA kit (DiaSorin of Stillwater, Minn.).

[2] = rat, in vivo; cited from earlier work
[3] = Serum 25(OH)D3 (RIA) after 1×/weekly oral administration in vitamin D deficient rats; assay type: in vivo, rat; conditions: FIG. 9, 1×/weekly oral, 100, 1000 and 3000 mcg/kg body weight
Source text: FIG. 9 is a bar graph illustrating the increases in serum 25(OH)D3 occurring after 1×/weekly oral administration of 25(OH)D3 at 100, 1000 and 3000 mcg/kg body weight in vitamin D deficient rats. The rats were male, Sprague-Dawley rats (weanlings, n=4-6/group) received from a commercial supplier. The animals were placed in rooms that lacked light emissions in the UV range. The animals were fed diets lacking any vitamin D, whereby at 10 weeks of age the animals were randomly assigned to 3 groups and then orally dosed 1× every 7 days with vehicle (5% ethanol in Neobee oil) or 25(OH)D3 dissolved in ethanol and Neobee oil. Blood was collected at the times indicated in the graph and serum 25(OH)D3 concentrations were assessed using a commercially available RIA kit (DiaSorin of Stillwater, Minn.).

[4] = Serum 25-(OH)D3 (RIA) after 1×/month oral administration in vitamin D deficient rats; assay type: in vivo, rat
Source text: FIG. 3 is a bar graph showing exemplary elevations of serum 25-(OH)D3 levels occurring after 1×/month oral administration of 25-(OH)D3 at 1, 3, 9, 30 and 100 mcg/kgBW in vitamin D deficient rats. The rats were male, Sprague-Dawley rats (weanlings, n=30) received from a commercial supplier. The animals were placed in rooms that lacked light emissions in the UV range and were fed diets lacking any vitamin D, whereby at 10 weeks of age the animals were randomly assigned to 6 groups (n=5/group), bled (0 d), and then orally dosed 1× every 28 days with vehicle (5% ethanol in Neobee oil) or 25-(OH)D3 dissolved in ethanol and Neobee oil. Blood was again collected 4 hr, 24 hr, and 1, 2, 3 and 4 weeks after each single, oral dose was administered, and serum 25-(OH)D3 concentrations were assessed using a commercially available RIA kit (DiaSorin of Stillwater, Minn.). FIG. 3 includes data taken after the 6th and 10th monthly dose.
FIG. 7 is a bar graph illustrating the increases in serum 25(OH)D3 occurring after 1×/monthly oral administration of 25(OH)D3 at 1000 and 3000 mcg/kg body weight in vitamin D deficient rats. […] Blood was collected at the times indicated in the graph and serum 25(OH)D3 concentrations were assessed using a commercially available RIA kit (DiaSorin of Stillwater, Minn.).

[5] = Serum total calcium after 1×/month oral administration in vitamin D-deficient rats; assay type: in vivo, rat
Source text: FIG. 4 is a bar graph showing no increase in serum Ca concentration levels above the normal range occurring after exemplary 1×/month oral administration of 25-(OH)D3 in vitamin D-deficient rats. The rats were male, Sprague-Dawley rats (weanlings, n=30) received from a commercial supplier. The animals were placed in rooms that lacked light emissions in the UV range and fed diets lacking vitamin D. At 10 weeks of age, the rats were randomly assigned to 6 groups (n=5/group), bled (0 d) and then orally dosed 1× every 28 days with vehicle (5% ethanol in Neobee oil) or 25-(OH)D3 dissolved in ethanol and Neobee oil, whereby blood was again collected 4 hr, 24 hr, and 1, 2, 3 and 4 weeks after each single, oral dose was administered. Total calcium concentrations were assessed in the serum using absorption spectrometry. FIG. 4 includes data out to 10 months of dosing.
The rats were male, Sprague-Dawley rats (weanlings, n=4-6/group) received from a commercial supplier. […] Blood was collected at the times indicated in the graph and total calcium concentrations were assessed in the serum using atomic absorption spectrometry or a clinical analyzer (Pentra 400, Horiba ABX Diagnostics—France).

[6] = Serum total calcium after 1×/month oral administration in rats with normal vitamin D status; assay type: in vivo, rat
Source text: FIG. 2 is a bar graph showing no change in serum calcium occurring after […] oral administration of 25-(OH)D3 in rats with normal vitamin D status. The rats were male, Sprague-Dawley rats (9 weeks of age, n=15) received from a commercial supplier. The animals were placed on a purified diet containing 0.47% calcium and allowed to acclimate for one week. After one week the animals were randomly assigned to 3 groups, bled (0 d), and then orally dosed 1× every […] with vehicle (5% ethanol in Neobee oil) or 25-(OH)D3 dissolved in ethanol and Neobee oil. Blood was again collected 4 hr, 24 h, and 1, 2, 3 and 4 weeks after each single, oral dose was administered, and total calcium concentrations were assessed in the serum using atomic absorption spectrometry. FIG. 2 also contains data taken after the 6th and 10th monthly dose.
The rats were male, Sprague-Dawley rats (9 weeks of age, n=4-6 animals/group) received from a commercial supplier. The animals were placed on a purified diet containing 0.47% calcium and allowed to acclimate for one week. […] Total calcium concentrations were assessed in the serum using atomic absorption spectrometry or a clinical analyzer (Pentra 400, Horiba ABX Diagnostics—France).

[7] = cited from earlier work
[8] = Serum total calcium after 1×/weekly oral administration in vitamin D deficient rats; assay type: in vivo, rat; conditions: FIG. 10
Source text: The rats were male, Sprague-Dawley rats (weanlings, n=4-6/group) received from a commercial supplier. The animals were placed in rooms that lacked light emissions in the UV range. The animals were fed diets lacking any vitamin D. At 10 weeks of age the animals were randomly assigned to 3 groups, and then orally dosed 1× every 7 days with vehicle (5% ethanol in Neobee oil) or 25(OH)D3 dissolved in ethanol and Neobee oil. Blood was collected at the times indicated in the graph and total calcium concentrations were assessed in the serum using atomic absorption spectrometry or a clinical analyzer (Pentra 400, Horiba ABX Diagnostics—France).

Solubility of 25-(OH)D3 = assay type: physicochemical
Source text: 25-(OH)D3 can exist in its free form or as a monohydrate. 25-(OH)D3 monohydrate is crystalline.

## C=C1CC[C@H](O)C/C1=C/C=C1\CCCC2(C)[C@@H]([C@H](C)CCCC(C)(C)O)CC[C@@H]12 (stereo partly drawn) [25-(OH)D3, 25-hydroxy-vitamin D3]
[1]; FIG. 1, 1×/month oral, 9 and 100 mcg/kgBW, rats with normal vitamin D status, up to 6 months of dosing
  serum 25-(OH)D3 levels: values return to baseline 4 weeks after the dose is administered
[1]; FIG. 5, 1×/monthly oral, 1000 and 3000 mcg/kg body weight, D-sufficient rats
  serum 25(OH)D3 circulating levels: circulating levels higher than normal
[2]
  25-(OH)D3 levels with risk of causing a mild vitamin D intoxication: above 500 ng/ml
  blood level concentration at which toxicity becomes a concern: greater than 450 ng/ml
[3]
  blood levels of 25(OH)D3: above the normal range without the large fluctuations
[4]; FIG. 3, 1×/month oral, 1, 3, 9, 30 and 100 mcg/kgBW, vitamin D deficient rats, up to 10th monthly dose
  serum 25-(OH)D3 levels: values return to baseline 4 weeks after the dose is administered
[4]; FIG. 7, 1×/monthly oral, 1000 and 3000 mcg/kg body weight, D-deficient rats
  serum 25(OH)D3 circulating levels: circulating levels higher than normal
[5]; FIG. 4, 1×/month oral, vitamin D-deficient rats, up to 10 months
  serum Ca concentration (hypercalcemia): do not cause hypercalcemia
[5]; FIG. 8, 1×/monthly oral, 1000 and 3000 mcg/kg body weight, vitamin D deficient rats
  serum calcium: no increase in serum calcium outside the normal range
[6]; FIG. 2, 1×/month oral, up to 10 months
  serum calcium (hypercalcemia): do not cause hypercalcemia
[6]; FIG. 6, 1×/monthly oral, 1000 and 3000 mcg/kg body weight
  serum calcium: no increase in serum calcium outside the normal range
[7]; administered orally
  time to peak 25-(OH)D3 concentrations in the serum: about 4 hours
[7]; human, in vivo
  lifetime in the body: 25 to 32 days
[7]; orally administered, in man
  fraction absorbed: 62-77%
[7]; orally administered
  half-life: 12 to 23 days
[8]
  serum calcium: no increase in serum calcium outside the normal range
Solubility of 25-(OH)D3; organic solvents
  solubility: soluble
Solubility of 25-(OH)D3; water
  solubility: relatively insoluble

Reference: patent publication US8759328B2, “Once-a-week administration of 25-hydroxy vitamin D3 to sustain elevated steady-state pharmacokinetic blood concentration” (Wisconsin Alumni Research Foundation, priority 2008, dated 2014)
